In PubChem BioAssay (NCI):
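Compound exposure: 48 hours, 5 concentrations, 96-well plates. TGI: concentration producing complete growth inhibition.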

Columns and labels:
Assay in all cases: growth of human tumour cells (NCI), 48 h
OVCAR-3 ovarian = tested on: OVCAR-3 ovarian
A498 renal = tested on: A498 renal
SNB-75 CNS = tested on: SNB-75 CNS
EKVX NSCLC = tested on: EKVX NSCLC
CCRF-CEM leukemia = tested on: CCRF-CEM leukemia
SK-MEL-28 melanoma = tested on: SK-MEL-28 melanoma
HT29 colon = tested on: HT29 colon
PC-3 prostate = tested on: PC-3 prostate
NCI-H226 lung = tested on: NCI-H226 lung
HL-60(TB) leukemia = tested on: HL-60(TB) leukemia
HCT-116 colon = tested on: HCT-116 colon
U251 CNS = tested on: U251 CNS
CAKI-1 renal = tested on: CAKI-1 renal
COLO 205 colon = tested on: COLO 205 colon
MDA-MB-435 = tested on: MDA-MB-435

SMILES	TGI (OVCAR-3 ovarian)	TGI (A498 renal)	TGI (SNB-75 CNS)	TGI (EKVX NSCLC)	TGI (CCRF-CEM leukemia)	TGI (SK-MEL-28 melanoma)	TGI (HT29 colon)	TGI (PC-3 prostate)	TGI (NCI-H226 lung)	TGI (HL-60(TB) leukemia)	TGI (HCT-116 colon)	TGI (U251 CNS)	TGI (CAKI-1 renal)	TGI (COLO 205 colon)	TGI (MDA-MB-435)
O=C(O)c1ccc(Nc2nc3ccccc3nc2-c2cccs2)cc1	> 100 µM	> 100 µM	> 100 µM	> 100 µM	> 100 µM	> 100 µM	> 100 µM	> 100 µM	> 100 µM	> 100 µM	> 100 µM	> 100 µM	> 100 µM	> 100 µM	> 100 µM
OC(C/C(=N\N1CCCCC1)c1cccs1)(C(F)(F)F)C(F)(F)F	> 10 µM	> 10 µM	> 10 µM	> 10 µM	> 10 µM	> 10 µM	> 10 µM	> 10 µM	> 10 µM	> 10 µM	> 10 µM	> 10 µM	> 10 µM	> 10 µM	> 10 µM
CC1=NN(C(=O)c2ccccc2O)C(=O)/C1=C/c1ccccc1O		0.124 µM	> 67.7 µM	41.6 µM	> 100 µM	> 100 µM	> 100 µM	> 100 µM	16.4 µM	3.62 µM	> 29.9 µM	> 100 µM	> 27.3 µM	> 89.1 µM	> 100 µM
COc1cc(C2c3cc4c(cc3OC(Nc3ccccc3)C2C)OCO4)cc(OC)c1OC (centres undefined)		1.69 µM	99.2 µM	> 88.5 µM	> 19.9 µM	> 100 µM	> 100 µM	> 100 µM	12.8 µM	0.593 µM	> 33 µM	21.3 µM	> 100 µM	14.5 µM	0.527 µM
O=c1[nH]c(=S)[nH]n1C(=S)n1[nH]c(=S)[nH]c1=O	> 100 µM	> 100 µM	> 100 µM	> 100 µM	> 100 µM	> 100 µM	> 100 µM	> 100 µM	> 100 µM	> 100 µM	> 100 µM	> 100 µM	> 100 µM	> 100 µM	> 100 µM
CC(=O)NC1C(O)C(O)C(CO)OC1n1ncc(=O)[nH]c1=O (centres undefined)	> 100 µM	> 100 µM	> 100 µM	> 100 µM	> 100 µM	> 100 µM	> 100 µM	> 100 µM	> 100 µM	> 100 µM	> 100 µM	> 100 µM	> 100 µM	> 100 µM	> 100 µM
CN(C)C(=O)Nc1cc2c3c(c1)CCCN3CCC2	> 10 µM	> 10 µM	> 10 µM	> 10 µM	> 10 µM	> 10 µM	> 10 µM	> 10 µM	> 10 µM	> 10 µM	> 10 µM	> 10 µM	> 10 µM	> 10 µM	> 10 µM
CC1=NN(c2nc(N)nc(CSCc3nc(N)nc(N(C)C)n3)n2)C(C)(C)C1	> 100 µM	> 100 µM	> 100 µM	> 100 µM	> 100 µM	> 100 µM	> 100 µM	> 100 µM	> 100 µM	> 100 µM	> 100 µM	> 100 µM	> 100 µM	> 100 µM	> 100 µM
O=c1cc(CBr)c2ccc(O)cc2o1	> 100 µM	> 100 µM	> 100 µM	91.1 µM	> 100 µM	> 100 µM	> 100 µM	> 100 µM	> 100 µM	> 100 µM	> 100 µM	> 100 µM	> 100 µM	> 100 µM	> 100 µM
C=C(Br)CN(C(C)=O)C1CCCCC1	> 100 µM	> 100 µM	> 100 µM	> 100 µM	> 100 µM	> 100 µM	> 100 µM	> 100 µM	> 100 µM	> 100 µM	> 100 µM	> 100 µM	> 100 µM	> 100 µM	> 100 µM
O=c1c2cccnc2cc(-c2ccccc2)n1CCO	> 100 µM	> 100 µM	> 100 µM	> 100 µM	> 100 µM	> 100 µM	> 100 µM	> 100 µM	> 100 µM	> 100 µM	> 100 µM	> 100 µM		> 100 µM	> 100 µM
N#Cc1c(Cl)/c(=C/O)c(=O)n2c1nc1ccccc12	99.5 µM	72.1 µM	> 100 µM	> 100 µM	> 100 µM	> 100 µM	> 100 µM	> 100 µM	52 µM	89.6 µM	> 100 µM	> 100 µM	> 100 µM	> 100 µM	> 100 µM
CCOC(=O)/C(C#N)=C1\c2c([nH]c(=S)[nH]c2=O)Oc2ccc3ccccc3c21	58.8 µM	> 100 µM	52 µM	> 100 µM	4.26 µM	3.81 µM	> 100 µM	> 100 µM	> 100 µM	4.56 µM	> 100 µM	> 100 µM	> 100 µM	> 100 µM	> 100 µM
CCCCCC(CO)C(O)(C(F)(F)F)C(F)(F)F (centres undefined)	> 10 µM	> 10 µM	> 10 µM	> 10 µM		> 10 µM	> 10 µM	> 10 µM	> 10 µM	> 10 µM	> 10 µM	> 10 µM	> 10 µM	> 10 µM	> 10 µM
O=C1CCC2CCC1C2 (centres undefined)	> 100 µM	> 100 µM	> 100 µM		> 100 µM	> 100 µM	> 100 µM	> 100 µM	> 100 µM	> 100 µM	> 100 µM	> 100 µM	> 100 µM	> 100 µM	> 100 µM
NC1=NN(c2ccccc2)C2(O)c3ccncc3C3=NN(c4ccccc4)C(=O)C132 (centres undefined)	> 100 µM	> 100 µM	> 100 µM	> 100 µM		> 100 µM	> 100 µM	> 100 µM	> 100 µM	> 100 µM	> 100 µM	> 100 µM	> 100 µM	> 100 µM	> 100 µM
